In patent US9163020B2, “Azaindole compounds, synthesis thereof, and methods of using the same” (Global Alliance for TB Drug Development, priority 2013, dated 2015):
In brackets after ≈: the same amount, converted by molar mass. Where two headings read alike, the source gives them in different places.

Tests used:
[1] = target: hERG (Homo sapiens, UniProt Q12809); test: hERG assay, IonWorks electrophysiology
Method: Compounds were tested on voltage-gated ion channels using the medium-throughput electrophysiology IonWorks™ device. […] For carrying out the experiment, a boat in the “Cells” position of the IonWorks™ instrument was loaded with the cell suspension, and a 96-well PBS destination plate was placed in the “Plate 1” position. A 384-well PatchPlate™ was placed in the IonWorks™ plenum and held in position using the plenum clamp. From this point the experiment progress is automated and ultimately reports a non-cumulative concentration-effect curve for test compound.

[2] = test system: Mycobacterium tuberculosis (Mtb) H37Rv ATCC 27294; test: microbe, parasite or virus in culture; assay type: cell-based; settings: Mycobacterium tuberculosis, read-out: Mtb MIC
[3] = in vivo
Method: PK of azaindoles compounds was performed in mice (healthy and infected) and rats. Mice were pretreated with 100 mg/kg ABT two hours prior to the compound administration. PK data from healthy mice was used to design the dosing regimen for the efficacy study while, information from infected mice was used for the PK-PD analysis.
All oral administration was performed as suspensions in 0.5% HPMC, and 0.1% Tween 80. […] All blood samples were collected via sapheneous vein into Microvette CB300® (Starstedt, Germany) tubes coated with Lithium-Heparin, and plasma was prepared from the collected blood by centrifugation.
One mg/mL stock solution of each compound was prepared in Dimethylsulfoxide (DMSO) and diluted two-fold with acetonitrile. A sixteen point calibration curve was utilized for each analyte, and the standard curves ranged from 0.001 to 40 μg/mL. Plasma/BAL samples were precipitated by adding chilled acetonitrile (1:10 v/v) containing carbamazepine as internal standard (250 ng/mL). Samples were vortexed, and centrifuged at 4000 rpm for 30 min at 10° C. The resulting supernatant was mixed with mobile phase (50% acetonitrile in water with 0.1% formic acid). […] of sample was injected on to a liquid chromatographic system (Waters-ACQUTY UPLC) coupled to triple quadrupole mass spectrometer (Waters-ACQUTY-TQD; MS/MS). Samples were acquired in positive ion mode and detected by multiple reaction monitoring (MRM). Concentrations of the analyte were determined from a standard curve obtained by plotting known concentrations of the analyte against peak area ratios (analyte/internal standard peak response).
PK analysis of the plasma concentration-time relationships were performed with WinNonlin Phoenix Software (version 6.2; Pharsight, USA). […] The maximum concentration of drug in plasma (Cmax), time to Cmax (Tmax), elimination half-life (t1/2), and AUC from time zero to infinity (AUC0-∞) were estimated. […] Minimum of three sample points in the terminal slope were used to estimate to calculate half-life.

[4] = test system: hypoxia induced non-replicating persistent (NRP) Mtb cells; test: Activity against hypoxia induced non-replicating persistent (NRP) Mtb (HBC, Wayne model); assay type: cell-based, Mycobacterium tuberculosis; settings: hypoxic conditions, Wayne model; Table 4
[5] = assay type: in vitro ADME
Method: 1 μM compound was incubated with 1 mg/mL of microsomes (Pooled HLM/MLM with 20 mg/ml protein cone.) at 37° C. in 166 μL of buffer (100 mM phosphate buffer, pH-7.4) containing 2 mM NADPH solution. […] The quench plate was centrifuged at 4000 rpm for 15 min. 30 μL of supernatant was diluted to 300 μL with 50% acetonitrile in water and substrate depletion was analyzed using LC-MS/MS.

[6] = test system: A549 human lung carcinoma cells; assay type: cell-based; settings: 72 hours treatment; Table 4
Method: The in vitro cytotoxicity of compounds were measured against A549 human lung carcinoma cells as describedin Eakin et. al (2012). Briefly, A549 cells (ATCC) were grown in RPMI medium (GIBCO-BRL) containing 10% heat-inactivated fetal bovine serum (GIBCO-BRL) and 1 mM L-glutamine (GIBCO-BRL) at a density of 1,000 cells/well. After incubation of the cells with compound in a CO2 atmosphere at 37° C. for 72 hours, cell viability was determined following addition of […] of resazurin solution (Sigma), by measuring fluorescence (excitation at 535 nm, emission at 590 nm) using a fluorimeter.

[7] = test system: CYP1A2, CYP2C9, CYP2C19, CYP2D6, CYP3A4; settings: CYP1A2, CYP2C9, CYP2C19, CYP2D6, CYP3A4
[8] = test system: panel of human targets and cardiac channels
[9] = test system: Mycobacterium tuberculosis (Mtb) H37Rv; test: Mtb minimal bactericidal concentration (MBC), plating from MIC plates; assay type: cell-based; settings: Table 4, read-out: Mtb MBC
Method: Aliquots from sample wells (MIC and higher) from the MIC plates were diluted 1:10 and plated on 7H10 agar plates. Plates were incubated at 37° C. for 3-4 weeks, CFU was enumerated.

[10] = in vivo; settings: male, Wistar, rat, po, 100 mg/kg
[11] = in vitro; assay type: in vitro ADME; settings: pH 7.4; mouse microsomes; read-out: Mo micrsomal Clint
Method: 1 μM compound was incubated with 1 mg/mL of microsomes (Pooled HLM/MLM with 20 mg/ml protein cone.) at 37° C. in 166 μL of buffer (100 mM phosphate buffer, pH-7.4) containing 2 mM NADPH solution. 20 μL of incubation mix was quenched with 4 volumes chilled acetonitrile at different time points i.e. 0, 2, 5, 10, 20 and 30 min in a fresh 96 well plate. The quench plate was centrifuged at 4000 rpm for 15 min. 30 μL of supernatant was diluted to 300 μL with 50% acetonitrile in water and substrate depletion was analyzed using LC-MS/MS.

[12] = Method: Viability of cryopreserved hepatocytes was determined using trypan blue and the cell conc. was adjusted to 10^6 cells per mL with buffer (KHB buffer). 1 μM compound (in Acetonitrile; 0.01% DMSO) was incubated with 500 μL of hepatocyte cells (1 million cells per mL) in a NUNC plate. […] Supernatants were analyzed using LC-MS/MS for substrate depletion.
[13] = Wistar, rat, in vivo, iv, 2 mg/kg
[14] = Wistar, rat, in vivo, po, 20 mg/kg

Sequence of hERG (Q12809 whole entry): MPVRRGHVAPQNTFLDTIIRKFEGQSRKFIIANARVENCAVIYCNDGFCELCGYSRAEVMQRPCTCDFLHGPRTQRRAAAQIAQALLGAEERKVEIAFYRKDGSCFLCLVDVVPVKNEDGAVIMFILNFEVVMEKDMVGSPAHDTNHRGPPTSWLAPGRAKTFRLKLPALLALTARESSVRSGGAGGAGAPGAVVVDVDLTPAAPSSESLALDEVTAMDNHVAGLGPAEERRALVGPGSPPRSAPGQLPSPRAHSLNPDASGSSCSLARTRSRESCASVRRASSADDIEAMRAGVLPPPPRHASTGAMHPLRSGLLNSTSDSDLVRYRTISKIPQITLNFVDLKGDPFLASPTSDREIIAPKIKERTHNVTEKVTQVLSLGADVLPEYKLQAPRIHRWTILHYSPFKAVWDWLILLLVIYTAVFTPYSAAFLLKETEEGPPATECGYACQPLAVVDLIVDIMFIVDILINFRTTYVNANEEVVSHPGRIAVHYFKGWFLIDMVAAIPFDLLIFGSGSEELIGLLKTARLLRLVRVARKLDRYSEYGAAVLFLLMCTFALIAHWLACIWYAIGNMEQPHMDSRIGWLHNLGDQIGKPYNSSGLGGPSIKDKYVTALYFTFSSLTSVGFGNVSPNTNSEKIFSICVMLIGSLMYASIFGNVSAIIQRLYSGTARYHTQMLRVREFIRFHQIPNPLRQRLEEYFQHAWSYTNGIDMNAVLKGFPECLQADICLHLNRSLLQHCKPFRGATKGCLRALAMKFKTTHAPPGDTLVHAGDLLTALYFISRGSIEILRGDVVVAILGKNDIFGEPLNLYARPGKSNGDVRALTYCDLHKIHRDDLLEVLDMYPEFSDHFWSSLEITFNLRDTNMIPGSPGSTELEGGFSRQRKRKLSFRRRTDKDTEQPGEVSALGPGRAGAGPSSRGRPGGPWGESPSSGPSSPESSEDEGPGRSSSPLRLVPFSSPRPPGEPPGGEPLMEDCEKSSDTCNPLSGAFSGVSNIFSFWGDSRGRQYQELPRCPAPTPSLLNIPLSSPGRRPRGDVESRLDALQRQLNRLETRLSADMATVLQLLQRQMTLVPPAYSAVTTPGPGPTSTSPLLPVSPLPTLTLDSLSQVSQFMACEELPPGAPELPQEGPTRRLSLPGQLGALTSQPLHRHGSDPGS

`COc1ncnc(Cn2cc(C(=O)NCCO)c3ncc(C)cc32)c1C` [Compound 17, N-(2-hydroxyethyl)-1-((6-methoxy-5-methylpyrimidin-4-yl)methyl)-6-methyl-1H-pyrrolo[3,2-b]pyridine-3-carboxamide] gave a hERG [1] greater than 33 µM, an MIC ([2]; Table 1) of 1.56 µM (≈ 0.554 µg/mL) and an MIC ([2]; Table 4) of 1.56 to 3.12 µM (≈ 0.554 to 1.11 µg/mL). For the same compound, the AUC(0-inf) ([3]; BALB/c, mouse, po, 50 mg/kg) was 420 ± 23.5 µM·h, the Cmax ([3]; BALB/c, mouse, po, 50 mg/kg) was 74.8 ± 15.6 µM and the Tmax ([3]; BALB/c, mouse, po, 50 mg/kg) was 1.33 ± 0.58 h. For the same compound, the half-life ([3]; BALB/c, mouse, po, 50 mg/kg) was 1.78 ± 0.1 h, the C0h ([3]; Wistar rats, IV 2 mg/kg, n = 2) was 2.64 µM and the F ([3]; Wistar rats, oral 20 mg/kg, n = 2) was 100%. For the same compound, the AUC(0-t) [3, 13] was 3.46 µM·h, the Vd [3, 13] was 7.34 L/kg and the clearance [3, 13] was 27.4 mL/min/kg. It also gave a bioavailability ([3]; Wistar, rat, in vivo, po) of 92%, an AUC(0-inf) [3, 14] of 59.8 µM·h and a Cmax [3, 14] of 17.8 µM. The Tmax [3, 14] was 0.5 h, the half-life [3, 14] was 2.74 h and the “Mtb HBC” value [4] was greater than 100 µM. The predicted clearance ([5]; human, rat) was 4-18 % of liver blood flow (% LBF), the “Human CLpred microsomes (% LBF)” value ([5]; pH 7.4) was 16.1 % LBF and the “MMIC (A549)” value [6] was greater than 100 µM. The CYP inhibition [7] was greater than 50 µM, the “Secondary pharmacology hits IC50” value [8] was “No significant hits” and the “in vitro safety profiling” value [8] was “no major safety liabilities”. The MBC [9] was 0.78 to 1.56 µM (≈ 0.277 to 0.554 µg/mL), the AUC(0-inf) [10] was 986 ± 274 µM·h and the Cmax [10] was 46.1 ± 7.7 µM. It also gave a Tmax [10] of 5.3 ± 1.2 h, a half-life [10] of 3.8 ± 0.6 h and a microsomal CLint [11] of 25 µL/min/mg. The “Human CLpred hepatocytes (% LBF)” value [12] was 9.2 % LBF and the “Rat CLpred hepatocytes (% LBF)” value [12] was 17.9 % LBF.
